Measured values reported in patent US12440571B2, “Immune agonists” (SHENZHEN UNIVERSITY, priority 2020, dated 2025).
Where two headings read alike, the source gives them in different places.

Tests used:
Format in all cases: cell-based
[1] = system: murine spleen lymphocytes; assay: Cytokine stimulation of murine spleen lymphocytes, ELISA; details: for EC50: Lymphocyte
Protocol: The stimulating effect of a series of GY compounds or drugs on murine spleen lymphocytes was detected by ELISA.
6-week-old Balb/c mice were sacrificed by cervical dislocation, spleens were taken under aseptic conditions. A 1 mL sterile syringe and a 200 mesh cell strainer were adopted to quickly grind and disperse the spleen into individual cells in 4 mL of a murine lymphocyte separation solution (Dakko's, 7211011). A resulting cell homogenate was transferred to a 15 mL centrifuge tube, then 1 mL of a RPMI 1640 medium (Hyclone, SH30809.01) was slowly added. Spleen lymphocytes were separated by a density gradient centrifugation method (800×g, 30 min), washed, red blood cells therein were lysed, such that a dispersed spleen lymphocyte suspension was obtained. Cells were counted by a hemocytometer, to calculate the cell concentration. A RPMI 1640 complete medium was adopted to adjust the cell suspension to a concentration of 1×10^6/ml/well, and the cells were then plated on a 24-well cell culture plate (Corning, 3524).
Murine spleen lymphocytes were stimulated according to the gradient concentrations of the series of GY compounds or drugs, and incubated in a 37° C., 5% carbon dioxide incubator for 24 hrs.
• (1) Coating: a Capture antibody (primary antibody, purchased from Invitrogen) was diluted with a 1×Coating Buffer (coating buffer, purchased from Invitrogen) to a recommended concentration, and 100 μL of a resulting diluted solution was added to each well of a 96-well microtiter plate, the plate was sealed with a sealing film at 4° C. overnight. • (2) Washing: a liquid in each well was discarded, then 300 μL of a PBST working solution was added to each well and kept for 1 min, thereafter, the liquid therein was discarded. The washing process was repeated 3 times. • (3) Blocking: 200 μL of a blocking solution was added to each well. The plate was sealed with a sealing film, and placed on a shaker and incubated at room temperature for 1 hr, then washed and patted to be dry. • (4) Sample incubation: a sample was collected and centrifuged to collect a supernatant. Standards, samples, negative controls, and blank controls were provided in the 96-well microtiter plate, and each concentration or sample were provided with 2 replicates. 100 μL of a standard or sample was added to each well, thereafter, the plate was sealed with a sealing film, incubated on a shaker at room temperature for 1 hr or overnight at 4° C., then washed and pated to be dry. • (5) Secondary antibody incubation: the detection antibody (secondary antibody, purchased from Invitrogen) was diluted to a recommended concentration with a dilution buffer, 100 μL of a secondary antibody was added to each well. After being sealed with a sealing film, the plate was incubated on a shaker at room temperature for 1 hr, then washed and patted to be dry. • (6) Avidin-HRP incubation: Avidin-HRP (horseradish peroxidase marker, purchased from Invitrogen) was diluted to the recommended concentration with a dilution buffer, 100 μL of Avidin-HRP was added to each well. After being sealed with a sealing film, the plate was placed on a shaker and incubated at room temperature for 30 mins, washed 5-7 times by the process of step 2), and patted to be dry. • (7) TMB color development: 100 μL of a TMB color development solution (purchased from Invitrogen) was added to each well, for carrying out reaction for 15 mins at room temperature in the dark. • (8) Stopping reaction: 50 μL of 1M H2SO4 solution was added to each well. • (9) Reading an absorbance value by a microplate reader: the OD value at 450 nm wavelength was read. A standard curve and a parameter nonlinear regression equation were drawn, and a sample concentration was calculated according to the obtained formula.

TLR7 = target: T1, TLR7 (Homo sapiens, UniProt Q9NYK1); assay: Detection of TLR7 activation (HEK-Blue Detection), SEAP reporter; details: for EC50: HEK-Blue hTLR7 cells, 6-16 hrs, absorbance 650 nm
T1 construct: host or cells: HEK-Blue hTLR7 cells (HEK293-derived SEAP reporter line)
T1 sequence (Q9NYK1 27-1049): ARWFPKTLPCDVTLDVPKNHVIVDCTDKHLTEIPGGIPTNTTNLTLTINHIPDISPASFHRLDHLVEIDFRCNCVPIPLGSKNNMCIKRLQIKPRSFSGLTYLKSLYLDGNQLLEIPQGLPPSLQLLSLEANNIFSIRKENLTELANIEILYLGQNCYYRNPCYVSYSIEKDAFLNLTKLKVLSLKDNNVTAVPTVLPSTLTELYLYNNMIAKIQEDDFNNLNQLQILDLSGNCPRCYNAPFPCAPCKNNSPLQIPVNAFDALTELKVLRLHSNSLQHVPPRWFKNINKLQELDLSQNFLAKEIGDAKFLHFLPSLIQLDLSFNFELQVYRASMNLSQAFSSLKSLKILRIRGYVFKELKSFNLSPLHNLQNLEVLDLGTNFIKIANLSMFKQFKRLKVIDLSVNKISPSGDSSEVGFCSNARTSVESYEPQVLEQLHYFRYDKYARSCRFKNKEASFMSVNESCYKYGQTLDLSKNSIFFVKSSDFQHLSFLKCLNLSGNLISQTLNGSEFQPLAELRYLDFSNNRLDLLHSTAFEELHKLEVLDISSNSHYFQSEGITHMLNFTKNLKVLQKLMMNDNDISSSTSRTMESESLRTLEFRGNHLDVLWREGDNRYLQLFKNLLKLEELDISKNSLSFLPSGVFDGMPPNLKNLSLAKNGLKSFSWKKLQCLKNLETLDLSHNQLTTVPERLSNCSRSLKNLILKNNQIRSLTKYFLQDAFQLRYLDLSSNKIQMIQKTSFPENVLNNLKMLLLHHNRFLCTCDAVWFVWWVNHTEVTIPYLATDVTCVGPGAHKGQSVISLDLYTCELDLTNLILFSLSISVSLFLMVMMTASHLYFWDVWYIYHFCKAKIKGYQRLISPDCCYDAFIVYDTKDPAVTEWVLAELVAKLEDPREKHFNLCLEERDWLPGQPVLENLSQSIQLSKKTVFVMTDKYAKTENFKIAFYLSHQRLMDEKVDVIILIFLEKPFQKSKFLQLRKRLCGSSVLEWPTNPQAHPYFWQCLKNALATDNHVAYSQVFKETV
Protocol: HEK-Blue™hTLR7 cells (purchased from InvivoGen) in a logarithmic growth phase were taken, with a growth medium (Gibco, C11995500BT, Invivo Gen, ant-nr) discarded. The cells were gently rinsed twice by an appropriate amount of 37° C. PBS (Hyclone, SH30256.01), a rinsed PBS was discarded. Thereafter, the cells were added with 2-5 mL of 37° C. PBS, incubated for 1 to 2 minutes, and then scraped by a cell scraper and gently pipetted to be dispersed into a single cell suspension. A hemocytometer was adopted to count the cells and a cell concentration was calculated. After that, a HEK-Blue™ Detection solution (purchased from Invivo Gen) was adopted to adjust the cell concentration of the cell suspension to 2.5×10^4/180 μL per well for cell plating on a 96-well cell culture plate. The HEK-Blue™hTLR7 cells were stimulated according to the designed series of GY compound or drug concentrations (0.01 μM, 0.1 μM, 1 μM, 5 μM, 15 μM, and 30 μM), with 3 replicate wells for each concentration, and were incubated at 37° C., 5% carbon dioxide for 6-16 hrs. After the incubation, the absorbance value was read at 650 nm with a full-wavelength microplate reader (BioTek-Epoch), as listed in Table 2.
Relative induction=(average OD value of experimental group−average OD value of negative control group)/average OD value of negative control group.
Specific details for the above method may be referred to https: • //www.invivogen.com/hek-blue-htlr7; https://www.invivogen.com/sites/default/files/invivogen/products/files/hek_blue_htlr7_tds.pdf.

[2] = system: human leukemia HL-60 cells; assay: CCK8 growth inhibition, HL60; details: read-out: IC50 of inhibitory activity on tumor cell growth, HL60
[3] = system: human lymphoma Daudi B cells; assay: CCK8 growth inhibition, Daudi B; details: CCK8 method; read-out: IC50 of inhibitory activity on tumor cell growth, Daudi B
[4] = system: human lymphoma Raji cells; assay: CCK8 growth inhibition, Raji; details: CCK8 method, read-out: IC50 of inhibitory activity on tumor cell growth, Raji
[5] = mouse immune cells (spleen lymphocytes), 24 hrs, ELISA, read-out: IFN-gamma EC50 of cytokine stimulating activity
[6] = mouse immune cells (spleen lymphocytes), 24 hrs, ELISA, read-out: IL-6 EC50 of cytokine stimulating activity
[7] = mouse immune cells (spleen lymphocytes), 24 hrs, ELISA, read-out: TNF-alpha EC50 of cytokine stimulating activity
[8] = Homo sapiens, HL-60, CCK8 method

| SMILES | EC50 [1, 5] [µM] | EC50 [1, 6] [µM] | EC50 [1, 7] [µM] | EC50 (TLR7; read-out: TLR7(EC50/μM)) [µM] | other results |
| --- | --- | --- | --- | --- | --- |
| CCCCOc1nc(N)c2nc(O)n(Cc3cn(CCOCCOCCOCCN=C=S)nn3)c2n1 [GY106] |  |  |  |  | EC50 (TLR7; TLR7(EC50/μM)): 0.08 µM; EC50 ([1]; Mus musculus, 24 h, read-out: IFN-gamma EC50 of cytokine stimulating activity): 2.83 µM; EC50 ([1]; Mus musculus, 24 h, read-out: IL-6 EC50 of cytokine stimulating activity): < 0.001 µM; EC50 ([1]; Mus musculus, 24 h, read-out: TNF-alpha EC50 of cytokine stimulating activity): < 0.001 µM |
| CCCCOc1nc(N)c2nc(O)n(Cc3cn(CCOCCOCCOCCNC(=O)CCC(=O)Nc4cccc5c4CN(C4CCC(=O)NC4=O)C5=O)nn3)c2n1 (stereo not shown) [GY110] |  |  |  | 3.17 |  |
| CCCCOc1nc(N)c2nc(O)n(Cc3cn(CCOCCOCCOCCN)nn3)c2n1 [GY102] | 1.07 | 0.637 | 1.44 | 0.79 |  |
| CCCCOc1nc(N)c2nc(O)n(Cc3cn(CCOCCOCCOc4c(OC)cc(/C=C/C(=O)N5CCC=CC5=O)cc4OC)nn3)c2n1 [GY117] |  |  |  | 0.22 | IC50 [2, 8]: 19 µM |
| CCCCOc1nc(N)c2nc(O)n(Cc3cn(CCOCCOCCOCC(=O)O)nn3)c2n1 [GY101] | 0.122 | 1.05 | 0.007 | 0.003 |  |
| C=C(CC(=O)NCCOCCOCCOCCn1cc(Cn2c(O)nc3c(N)nc(OCCCC)nc32)nn1)C(=O)O [GY109] | 0.983 | 0.653 | 0.153 | 0.65 |  |
| CCCCOc1nc(N)c2nc(O)n(Cc3cn(CCCCCCCCCCCCP(=O)(O)O)nn3)c2n1 [GY103] | 3.34 | 1.51 | 2.62 | 0.86 |  |
| CCCCOc1nc(N)c2nc(O)n(Cc3cn(CCOCCOCCOCCNC(=O)c4cc5c(Oc6ccc(NC(=O)NC7CC7)c(Cl)c6)ccnc5cc4OC)nn3)c2n1 [GY114] |  |  |  | 1.98 |  |
| CCCCOc1nc(N)c2nc(O)n(Cc3cn(CCOCCOCCOCCNC(=O)c4cc(/N=N/c5ccc(S(=O)(=O)Nc6ccccn6)cc5)ccc4O)nn3)c2n1 [GY113] |  |  |  | 1.87 |  |
| C#CCn1c(O)nc2c(N)nc(OCCCC)nc21 [GY100] | 0.104 | < 0.001 | < 0.001 | 2.25 | TLR7 agonist activity (in words) (TLR7): highly active TLR7 agonist |
| CCOCc1nc2c(N)nc3ccccc3c2n1CC(C)(C)O [Compound R848, Resiquimod, reference compound] | 0.056 | < 0.001 | < 0.001 |  |  |

Further lines, with some results ahead:

| EC50 [1, 5] [µM] | EC50 [1, 6] [µM] | EC50 [1, 7] [µM] | EC50 (TLR7; read-out: TLR7(EC50/μM)) [µM] | SMILES | other results |
| --- | --- | --- | --- | --- | --- |
| 0.01 | 5.93 | 0.001 |  | CCCCOc1nc(N)c2nc(O)n(Cc3cn(CCOCCOCCOCCNC(=S)NNCCc4ccccc4)nn3)c2n1 [GY164] |  |
|  |  |  | 2.92 | C=C(CC(=O)NCCOCCOCCOCCn1cc(Cn2c(O)nc3c(N)nc(OCCCC)nc32)nn1)C(=O)N1CCC(C2CCNc3c(C(N)=O)c(-c4ccc(Oc5ccccc5)cc4)nn32)CC1 (single isomer, unassigned) [GY137] | IC50 ([2]; CCK8 method): 27 µM; IC50 [3]: 24.6 µM; IC50 [4]: 37.2 µM |
|  |  |  | 0.29 | CCCCOc1nc(N)c2nc(O)n(Cc3cn(CCCCCCCCCCCCCCC(=O)O)nn3)c2n1 [GY145] |  |
|  | 8.3 | 8.35 |  | CC(C)Cn1cnc2c(N)nc3ccccc3c21 [Imiquimod, reference compound] | IFN-gamma EC50 of cytokine stimulating activity ([1]; mouse immune cells (spleen lymphocytes), 24 hrs, ELISA): No fit |
|  |  |  | 9.07 | CCCCOc1nc(N)c2nc(O)n(Cc3cn(CCOCCOCCOCCNC(=S)N4CCC(C5CCNc6c(C(N)=O)c(-c7ccc(Oc8ccccc8)cc7)nn65)CC4)nn3)c2n1 (single isomer, unassigned) [GY135] | IC50 [2, 8]: 13.1 µM; IC50 [3]: 14.6 µM; IC50 [4]: 7.6 µM |
|  |  |  | 0.92 | CCCCOc1nc(N)c2nc(O)n(Cc3cn(CCOCCOCCOCCNC(=S)NC(CCC(=O)NC(CS)C(=O)NCC(=O)O)C(=O)O)nn3)c2n1 (stereo not shown) [GY126] |  |
| 7.86 | 1.1 | 0.058 |  | CCCCOc1nc(N)c2nc(O)n(Cc3cn(CCOCCOCCOCC(=O)NO)nn3)c2n1 [GY163] |  |
|  |  |  | 1.99 | CCCCOc1nc(N)c2nc(O)n(Cc3cn(CCOCCOCCOCCNC(=S)N4CCC(C5CCNc6c(C(N)=O)c(-c7ccc(Oc8ccccc8)cc7)nn65)CC4)nn3)c2n1 (single isomer, unassigned) [GY134] | IC50 [3]: 6.99 µM; IC50 ([4]; Homo sapiens, Raji): 5.12 µM |
